In PubChem BioAssay AID2060493 (Molecular Pharmacology Branch, DTP, NCI, 2025):

Tested on: 616215-338-R-J1-PDC tumor spheroids, viability
Experiment: Anticancer human tumor 616215-338-R-J1-PDC patient-derived colon adenocarcinoma cell line growth inhibition [GQUAD]
Conditions: spheroids with HUVEC and MSC; for IC50: curve of first compound; for viability, T/C: stronger effect = lower value
From the text: DNA G-quadruplex Stabilizer Agents in Combinations in Complex Spheroids
A high-throughput screen of multi-cell type tumor spheroids was designed to identify active combinations of DNA G-quadruplex stabilizer agents and targeted small molecules. Complex spheroids include a stromal component modeled by human endothelial cells (HUVEC) and fibroblasts modeled by human mesenchymal stem cells (MSCs). The concentration ranges selected for each drug and investigational agent were based upon clinically achievable concentrations if the clinical Cmax of the agent was known.
Compounds. The drugs and investigational agents: pidnarulex (CX-5461; NSC782164), APTO-253 (NSC789042), BRACO-19 (NSC847499), peposertib (NSC802822), ceralasertib (NSC780249), elimusertib (NSC800525), camonsertib (NSC841442), AZD-1390 (NSC803789), olaparib (NSC753686), talazoparib (NSC767125), ART-558 (NSC835418), sotorasib (NSC818433), MRTX-1133 (NSC836407), SN-38 (NSC673596), topotecan (NSC609699), etoposide (NSC141540), doxorubicin (NSC123127), gemcitabine (NSC613327), 5-fluorouracil (NSC19893), paclitaxel (NSC125973), vemurafenib (NSC761431), panobinostat (NSC761190), R-306465 (JNJ-16241199; NSC773264), adavosertib (NSC754352), TP-3654 (NSC805149), carboplatin (NSC241240), KSQ-4279 (NSC840948), and staurosporine (NSC755774) were obtained from the National Cancer Institute (NCI) Developmental Therapeutics Program Chemical Repository (34). The FDA-approved anticancer drug set is available from the NCI Developmental Therapeutics Program. […] The stock solutions were prepared in dimethyl sulfoxide (DMSO, Sigma-Aldrich, St. Louis, MO, cat. D2650) at 800-fold the tested concentration and stored at -70 degrees C prior to their use. All drugs and investigational agents were tested over a range starting from a high concentration at or near the clinical Cmax and decreasing in half-log increments. If the clinical Cmax for an agent had not been determined, the highest concentration tested was 10 microM.
2.3 Cell Culture. All cells were maintained in an incubator at 37 degrees C and 5% CO2 with 95% humidity. The PDC lines were cultured according to standard operating procedures established by the NCI PDMR. All PDCs were thawed and cultured in Matrigel-coated flasks prepared with a working solution of 1X Ham's F-12 nutrient mix, without supplementation (Invitrogen, cat. 11765054), 100 U/mL penicillin-streptomycin (Invitrogen, cat. 15140122), and 2.5% Matrigel (Corning Inc., cat. 354248) for the first three passages. The 857933-349-R-J2-PDC line was cultured in 6C/Colon 1B media, which includes advanced DMEM/F-12 (Thermo Fisher Scientific, cat. 12634028), 10 mM HEPES (Thermo Fisher Scientific, cat. 15630080), 1X GlutaMAX supplement (Thermo Fisher Scientific, cat. 35050061), 0.1 mg/mL primocin (InvivoGen, cat. ant-pm-2), 10% defined fetal bovine serum, heat inactivated (HyClone Laboratories Inc., cat. SH30070.03HI), 50% L-WRN conditioned media (ATCC, cat. CRL-3276), 1.25 mM N-Acetyl-L-cysteine (Sigma-Aldrich, cat. A9165), 10 mM nicotinamide (Sigma-Aldrich, cat. N0636), 1X B-27 supplement (Thermo Fisher Scientific, cat. 17504044), 1X N-2 supplement (Thermo Fisher Scientific, cat. 17502048), 10 microM Y-27632 dihydrochloride (Tocris Bioscience, cat. 1254), and 50 ng/mL human EGF recombinant protein (Thermo Fisher Scientific, cat. PHG0311). The 485176-168-R4-J1-PDC line was cultured in Panc media, which includes all 6C/Colon 1B media components plus 100 ng/mL human FGF-10 (Thermo Fisher Scientific, cat. 100-26), 500 nM SB-431542 (Selleckchem, cat. S1067), and gastrin (Tocris, cat. 3006).
[…]
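Further: spheroids exposed to agents for 7 days before readout.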
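Wherever viability, T/C is given: percent viability relative to DMSO vehicle control wells taken as 100%.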

O=c1[nH]cc(F)c(=O)[nH]1 + CN(C)c1ccc(Nc2c3ccc(NC(=O)CCN4CCCC4)cc3nc3cc(NC(=O)CCN4CCCC4)ccc23)cc1
IC50 (second compound 0.0316 µM): 663 nM
IC50 (second compound 0.1 µM): 505 nM
IC50 (second compound 0.316 µM): 455 nM
IC50 (second compound 1 µM): 562 nM
IC50 (second compound 3.16 µM): 383 nM
IC50 (second compound 10 µM): 373 nM
viability, T/C (second compound 0.0316 µM, first compound 0.0316 µM): 98.4%
viability, T/C (second compound 0.0316 µM, first compound 0.1 µM): 89.3%
viability, T/C (second compound 0.0316 µM, first compound 0.316 µM): 66.6%
viability, T/C (second compound 0.0316 µM, first compound 1 µM): 39.8%
viability, T/C (second compound 0.0316 µM, first compound 3.16 µM): 36.4%
viability, T/C (second compound 0.0316 µM, first compound 10 µM): 32.8%
viability, T/C (second compound 0.1 µM, first compound 0.0316 µM): 95.3%
viability, T/C (second compound 0.1 µM, first compound 0.1 µM): 94.3%
viability, T/C (second compound 0.1 µM, first compound 0.316 µM): 58.8%
viability, T/C (second compound 0.1 µM, first compound 1 µM): 38%
viability, T/C (second compound 0.1 µM, first compound 3.16 µM): 38.1%
viability, T/C (second compound 0.1 µM, first compound 10 µM): 33.9%
viability, T/C (second compound 0.316 µM, first compound 0.0316 µM): 93.9%
viability, T/C (second compound 0.316 µM, first compound 0.1 µM): 81.2%
viability, T/C (second compound 0.316 µM, first compound 0.316 µM): 54.5%
viability, T/C (second compound 0.316 µM, first compound 1 µM): 39.6%
viability, T/C (second compound 0.316 µM, first compound 3.16 µM): 36.7%
viability, T/C (second compound 0.316 µM, first compound 10 µM): 32.8%
viability, T/C (second compound 1 µM, first compound 0.0316 µM): 101%
viability, T/C (second compound 1 µM, first compound 0.1 µM): 86.4%
viability, T/C (second compound 1 µM, first compound 0.316 µM): 59.2%
viability, T/C (second compound 1 µM, first compound 1 µM): 41.6%
viability, T/C (second compound 1 µM, first compound 3.16 µM): 31.2%
viability, T/C (second compound 1 µM, first compound 10 µM): 33.6%
viability, T/C (second compound 3.16 µM, first compound 0.0316 µM): 84.5%
viability, T/C (second compound 3.16 µM, first compound 0.1 µM): 83.8%
viability, T/C (second compound 3.16 µM, first compound 0.316 µM): 52.5%
viability, T/C (second compound 3.16 µM, first compound 1 µM): 38%
viability, T/C (second compound 3.16 µM, first compound 3.16 µM): 32%
viability, T/C (second compound 3.16 µM, first compound 10 µM): 34%
viability, T/C (second compound 10 µM, first compound 0.0316 µM): 87.6%
viability, T/C (second compound 10 µM, first compound 0.1 µM): 71.3%
viability, T/C (second compound 10 µM, first compound 0.316 µM): 52.4%
viability, T/C (second compound 10 µM, first compound 1 µM): 38.9%
viability, T/C (second compound 10 µM, first compound 3.16 µM): 38.3%
viability, T/C (second compound 10 µM, first compound 10 µM): 35.5%
